For 15 molecules, TGI results are on record in PubChem BioAssay (NCI).

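All cell lines were grown in 96-well plates and treated with compound for 48 hours. The concentration for full growth arrest is given as TGI.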 A value given as a limit tells only on which side of the number the result lay.

Among the test systems are DU-145 prostate; NCI-H522 lung; NCI-H23 lung; PC-3 prostate; K-562 leukemia; UACC-62 melanoma; NCI-H226 lung; 786-0 renal; OVCAR-4 ovarian; LOX IMVI melanoma.
What all share (assay): NCI anticancer screen, dose series, 48 h

Turning to `Cc1cccc(NC(=O)CC(=O)N2N=C(N3c4ccccc4Sc4ccccc43)CC2c2ccccc2)c1` (centres undefined), the TGI in the test with DU-145 prostate, with NCI-H522 lung, with NCI-H23 lung, in the test with PC-3 prostate, in the test on K-562 leukemia and with UACC-62 melanoma was greater than 100 µM in each case. Besides, the TGI with NCI-H226 lung, in the test with 786-0 renal and in the test with OVCAR-4 ovarian was greater than 100 µM in each case.
Turning to `CC1CN=C(c2cccc(OCc3ccc(COc4cccc(C5=NCC(C)N5)c4)cc3)c2)N1` (centres undefined), the TGI was 62.1 µM in the test on LOX IMVI melanoma; greater than 100 µM in the test on DU-145 prostate; greater than 100 µM in the test with NCI-H522 lung; greater than 100 µM with NCI-H23 lung; greater than 100 µM in the test on PC-3 prostate; greater than 100 µM in the test on K-562 leukemia. For the same molecule, the TGI with UACC-62 melanoma, in the test with 786-0 renal and in the test on OVCAR-4 ovarian was greater than 100 µM in each case.
Regarding `CC1=NNC(N)=N/C1=C/C(Sc1ccc(Cl)cc1)c1cccs1` (centres undefined), the TGI is greater than 100 µM in the test on LOX IMVI melanoma; 68.2 µM in the test with DU-145 prostate; 18.2 µM in the test on NCI-H522 lung; 52 µM in the test with NCI-H23 lung; 27.8 µM in the test on PC-3 prostate; 67.9 µM in the test with K-562 leukemia. Besides, the TGI with NCI-H226 lung turned out to be 32.6 µM; with 786-0 renal, 82.4 µM; with OVCAR-4 ovarian it was 76.6 µM.
For `COc1ccc(Cn2nc(OCc3ccccn3)c3cc([N+](=O)[O-])ccc32)cc1`, the TGI in the test with LOX IMVI melanoma, with DU-145 prostate, with NCI-H522 lung, with NCI-H23 lung, with PC-3 prostate and with K-562 leukemia was greater than 100 µM each time. The TGI with UACC-62 melanoma, in the test with NCI-H226 lung and with 786-0 renal was greater than 100 µM each time.
Regarding `Cc1ccc2ccccc2c1CC1S(=O)(=O)OCCOS1(=O)=O`, the TGI amounted to 22.2 µM in the test on LOX IMVI melanoma; 24.1 µM with DU-145 prostate; 41 µM in the test on NCI-H23 lung; 24.3 µM in the test with PC-3 prostate; 34 µM in the test with K-562 leukemia; 30.3 µM with 786-0 renal. Further, the TGI in the test on OVCAR-4 ovarian is 23.6 µM.
In the case of `CC1=NN(c2nc(N)nc(/C(C#N)=C/c3ccncc3)n2)C(C)(C)C1`, the TGI with LOX IMVI melanoma was greater than 100 µM; with DU-145 prostate, greater than 100 µM; in the test with NCI-H23 lung, greater than 100 µM; in the test with PC-3 prostate, greater than 100 µM; with K-562 leukemia it was 37.9 µM; in the test on UACC-62 melanoma, greater than 100 µM. Further, the TGI with NCI-H226 lung, in the test on 786-0 renal and with OVCAR-4 ovarian was greater than 100 µM in each case.
With `O=c1oc2ccccc2cc1-c1nc2ccc([N+](=O)[O-])cc2o1`, the TGI in the test with LOX IMVI melanoma, in the test on DU-145 prostate, in the test on NCI-H522 lung, in the test on NCI-H23 lung, in the test with PC-3 prostate and in the test on K-562 leukemia was greater than 100 µM throughout. Moreover, the TGI with UACC-62 melanoma, with NCI-H226 lung and with 786-0 renal was greater than 100 µM in each case.
For the molecule `O=C1c2cc3c(cc2CC12Cc1cc4c(cc1C2)CCC4)CCC3`, the TGI with LOX IMVI melanoma, in the test on DU-145 prostate, with NCI-H522 lung, in the test with NCI-H23 lung, in the test with PC-3 prostate and with K-562 leukemia was greater than 100 µM throughout. The TGI with 786-0 renal and in the test on OVCAR-4 ovarian was greater than 100 µM each time.
For `CC(=O)Oc1ccc2cc(Oc3ccc(Cl)cc3)c(=O)oc2c1`, the TGI is greater than 100 µM in the test on LOX IMVI melanoma; greater than 100 µM in the test with DU-145 prostate; 89.6 µM in the test with NCI-H522 lung; greater than 100 µM in the test with NCI-H23 lung; 78.7 µM with PC-3 prostate; greater than 100 µM in the test with NCI-H226 lung. The TGI with 786-0 renal and in the test with OVCAR-4 ovarian was greater than 100 µM each time.
With `O=c1c(Cc2ccc(Cl)cc2)nnc2sc(-c3ccc([N+](=O)[O-])cc3)nn12`, the TGI with LOX IMVI melanoma was greater than 100 µM; in the test with DU-145 prostate, greater than 100 µM; with NCI-H23 lung, 54.5 µM; with PC-3 prostate, 47.2 µM; with K-562 leukemia, greater than 100 µM; in the test with UACC-62 melanoma, 34 µM. Moreover, the TGI in the test with 786-0 renal and in the test with OVCAR-4 ovarian was greater than 100 µM throughout.
Take `c1ccc2c3c(ccc2c1)CSCc1ccc2ccccc2c1-3`: the TGI in the test on LOX IMVI melanoma, in the test with DU-145 prostate, with NCI-H522 lung, in the test on NCI-H23 lung, in the test with PC-3 prostate and with K-562 leukemia was greater than 100 µM each time. The TGI in the test on UACC-62 melanoma, with 786-0 renal and with OVCAR-4 ovarian was greater than 100 µM in each case.
Take `Cc1cs/c(=N\C(P(=O)(O)O)P(=O)(O)O)n1C`: the TGI in the test on LOX IMVI melanoma, with DU-145 prostate, in the test on NCI-H522 lung, with NCI-H23 lung, in the test with PC-3 prostate and with K-562 leukemia was greater than 100 µM each time. Further, the TGI with UACC-62 melanoma, with NCI-H226 lung and in the test on 786-0 renal was greater than 100 µM throughout.
For the molecule `Cc1ncc([N+](=O)[O-])n1CCN=[N+]=[N-]`, the TGI in the test on DU-145 prostate, in the test with NCI-H522 lung, in the test with NCI-H23 lung, with PC-3 prostate, in the test on K-562 leukemia and in the test with UACC-62 melanoma was greater than 100 µM in each case. Further, the TGI in the test with NCI-H226 lung, with 786-0 renal and in the test on OVCAR-4 ovarian was greater than 100 µM each time.
On to `Oc1ccc(-c2c3c(nc4c2CCc2ccc(Br)cc2-4)-c2cc(Br)ccc2CC3)cc1`, for which the TGI with DU-145 prostate worked out at 59.5 µM; in the test with NCI-H522 lung, 42.7 µM; with NCI-H23 lung it was 38.7 µM; in the test with PC-3 prostate it was 31.9 µM; in the test with UACC-62 melanoma it was 44.2 µM; in the test on NCI-H226 lung it was 48 µM. Further, the TGI in the test with 786-0 renal was found to be 37.4 µM; with OVCAR-4 ovarian, 48 µM.
Regarding `COC(=O)Cc1c(C2=Nc3ccccc3C2(O)CC(=O)OC)[nH]c2ccccc12` (centres undefined), the TGI in the test on LOX IMVI melanoma, in the test with DU-145 prostate, with NCI-H522 lung, in the test with NCI-H23 lung, in the test with PC-3 prostate and in the test on K-562 leukemia was greater than 100 µM each time. For the same molecule, the TGI in the test on UACC-62 melanoma, with NCI-H226 lung and with 786-0 renal was greater than 100 µM throughout.
